Assay results taken from PubChem BioAssay AID1259407 (Chemical Carcinogenesis Research Information System (CCRIS), 2018).
Calls of active or inactive are those of the source. No rule for the calls is given here.

Test system: CCRIS mutagenicity, Ames/micronucleus/aberration tests
Test: CCRIS mutagenicity studies

Nc1ccccc1
mutagenic call (End Point: IN VITRO CHROMOSOMAL ABERRATIONS, Test System: CHINESE HAMSTER OVARY CELLS, Metabolic Activation: NONE): inactive; negative
mutagenic call (End Point: IN VITRO CHROMOSOMAL ABERRATIONS, Test System: CHINESE HAMSTER OVARY CELLS, Metabolic Activation: RAT, LIVER, S-9, AROCLOR 1254): active; positive
mutagenic call (End Point: IN VITRO MICRONUCLEUS, Test System: CHL/IU CELLS, Metabolic Activation: RAT, LIVER, S-9, PHENOBARBITAL AND 5,6-BENZOFLAVONE): active; positive
mutagenic call (End Point: IN VIVO MICRONUCLEUS, Test System: BONE MARROW, Species: MOUSE, Strain/Sex: B6C3F1/MALE, Route: GAVAGE): active; positive
mutagenic call (End Point: In vivo chromosomal aberrations, Test System: Bone marrow erythrocytes, Species: Rat, Strain/Sex: PVG/Male, Route: Oral): active; positive (structural changes) at 500 mg/kg (p<0.01)
mutagenic call (End Point: In vivo micronucleus, Test System: Bone marrow erythrocytes, Species: Mouse, Strain/Sex: CRH/Male, Route: Intraperitoneal): active; positive (p<0.05)
mutagenic call (Test System: AMES SALMONELLA TYPHIMURIUM, Strain/Indicator: TA97, Metabolic Activation: NONE, Method: STANDARD PLATE): inactive; negative
mutagenic call (Test System: AMES SALMONELLA TYPHIMURIUM, Strain/Indicator: TA97, Metabolic Activation: RAT, LIVER, S-9, AROCLOR 1254, Method: STANDARD PLATE): inactive; negative
mutagenic call (Test System: AMES SALMONELLA TYPHIMURIUM, Strain/Indicator: TA98(NR), Metabolic Activation: NONE, Method: PREINCUBATION): inactive; negative
mutagenic call (Test System: AMES SALMONELLA TYPHIMURIUM, Strain/Indicator: TA98(NR), Metabolic Activation: RAT, LIVER, S-9, AROCLOR 1254, Method: PREINCUBATION): inactive; negative
mutagenic call (Test System: AMES SALMONELLA TYPHIMURIUM, Strain/Indicator: TA98, Metabolic Activation: HAMSTER, LIVER, S-9, AROCLOR 1254, Method: STANDARD PLATE): inactive; negative
mutagenic call (Test System: AMES SALMONELLA TYPHIMURIUM, Strain/Indicator: TA98, Metabolic Activation: HAMSTER, LIVER, S-9, Method: STANDARD PLATE): inactive; negative
mutagenic call (Test System: AMES SALMONELLA TYPHIMURIUM, Strain/Indicator: TA98, Metabolic Activation: MOUSE, LIVER, S-9, AROCLOR 1254, Method: STANDARD PLATE): inactive; negative
mutagenic call (Test System: AMES SALMONELLA TYPHIMURIUM, Strain/Indicator: TA98, Metabolic Activation: MOUSE, LIVER, S-9, Method: STANDARD PLATE): inactive; negative
mutagenic call (Test System: AMES SALMONELLA TYPHIMURIUM, Strain/Indicator: TA98, Metabolic Activation: NONE, Method: STANDARD PLATE): inactive; negative
mutagenic call (Test System: AMES SALMONELLA TYPHIMURIUM, Strain/Indicator: TA98, Metabolic Activation: PEA APICAL BUD S-9, Method: PREINCUBATION): inactive; negative
mutagenic call (Test System: AMES SALMONELLA TYPHIMURIUM, Strain/Indicator: TA98, Metabolic Activation: PEA APICAL BUD S-9, Method: STANDARD PLATE): inactive; negative
mutagenic call (Test System: AMES SALMONELLA TYPHIMURIUM, Strain/Indicator: TA98, Metabolic Activation: RAT, LIVER, S-9, AROCLOR 1254, Method: STANDARD PLATE): inactive; negative
mutagenic call (Test System: AMES SALMONELLA TYPHIMURIUM, Strain/Indicator: TA98, Metabolic Activation: RAT, LIVER, S-9, ETHANOL, Method: PREINCUBATION): inactive; negative
mutagenic call (Test System: AMES SALMONELLA TYPHIMURIUM, Strain/Indicator: TA98, Metabolic Activation: RAT, LIVER, S-9, PHENOBARBITAL, Method: PREINCUBATION): inactive; negative
mutagenic call (Test System: AMES SALMONELLA TYPHIMURIUM, Strain/Indicator: TA98, Metabolic Activation: RAT, LIVER, S-9, PYRAZOLE, Method: PREINCUBATION): inactive; negative
mutagenic call (Test System: AMES SALMONELLA TYPHIMURIUM, Strain/Indicator: TA98, Metabolic Activation: RAT, LIVER, S-9, Method: STANDARD PLATE): inactive; negative
mutagenic call (Test System: AMES SALMONELLA TYPHIMURIUM, Strain/Indicator: TA100(NR), Metabolic Activation: NONE, Method: PREINCUBATION): inactive; negative
mutagenic call (Test System: AMES SALMONELLA TYPHIMURIUM, Strain/Indicator: TA100(NR), Metabolic Activation: RAT, LIVER, S-9, AROCLOR 1254, Method: PREINCUBATION): inactive; negative
mutagenic call (Test System: AMES SALMONELLA TYPHIMURIUM, Strain/Indicator: TA100, Metabolic Activation: HAMSTER, LIVER, S-9, AROCLOR 1254, Method: STANDARD PLATE): inactive; negative
mutagenic call (Test System: AMES SALMONELLA TYPHIMURIUM, Strain/Indicator: TA100, Metabolic Activation: HAMSTER, LIVER, S-9, Method: STANDARD PLATE): inactive; negative
mutagenic call (Test System: AMES SALMONELLA TYPHIMURIUM, Strain/Indicator: TA100, Metabolic Activation: MOUSE, LIVER, S-9, AROCLOR 1254, Method: STANDARD PLATE): inactive; negative
mutagenic call (Test System: AMES SALMONELLA TYPHIMURIUM, Strain/Indicator: TA100, Metabolic Activation: MOUSE, LIVER, S-9, Method: STANDARD PLATE): inactive; negative
mutagenic call (Test System: AMES SALMONELLA TYPHIMURIUM, Strain/Indicator: TA100, Metabolic Activation: NONE, Method: STANDARD PLATE): inactive; negative
mutagenic call (Test System: AMES SALMONELLA TYPHIMURIUM, Strain/Indicator: TA100, Metabolic Activation: PEA APICAL BUD S-9, Method: PREINCUBATION): inactive; negative
mutagenic call (Test System: AMES SALMONELLA TYPHIMURIUM, Strain/Indicator: TA100, Metabolic Activation: PEA APICAL BUD S-9, Method: STANDARD PLATE): inactive; negative
mutagenic call (Test System: AMES SALMONELLA TYPHIMURIUM, Strain/Indicator: TA100, Metabolic Activation: RAT, LIVER, S-9, AROCLOR 1254, Method: PREINCUBATION): inactive; negative
mutagenic call (Test System: AMES SALMONELLA TYPHIMURIUM, Strain/Indicator: TA100, Metabolic Activation: RAT, LIVER, S-9, AROCLOR 1254, Method: STANDARD PLATE): inactive; negative
mutagenic call (Test System: AMES SALMONELLA TYPHIMURIUM, Strain/Indicator: TA100, Metabolic Activation: RAT, LIVER, S-9, ETHANOL, Method: PREINCUBATION): inactive; negative
mutagenic call (Test System: AMES SALMONELLA TYPHIMURIUM, Strain/Indicator: TA100, Metabolic Activation: RAT, LIVER, S-9, PHENOBARBITAL, Method: PREINCUBATION): inactive; negative
mutagenic call (Test System: AMES SALMONELLA TYPHIMURIUM, Strain/Indicator: TA100, Metabolic Activation: RAT, LIVER, S-9, PYRAZOLE, Method: PREINCUBATION): inactive; negative
mutagenic call (Test System: AMES SALMONELLA TYPHIMURIUM, Strain/Indicator: TA100, Metabolic Activation: RAT, LIVER, S-9, Method: STANDARD PLATE): inactive; negative
mutagenic call (Test System: AMES SALMONELLA TYPHIMURIUM, Strain/Indicator: TA102, Metabolic Activation: RAT, LIVER, S-9, AROCLOR 1254, Method: STANDARD PLATE): inactive; negative
mutagenic call (Test System: AMES SALMONELLA TYPHIMURIUM, Strain/Indicator: TA102, Metabolic Activation: RAT, LIVER, S-9, PYRAZOLE, Method: PREINCUBATION): inactive; negative
mutagenic call (Test System: AMES SALMONELLA TYPHIMURIUM, Strain/Indicator: TA1535, Metabolic Activation: HAMSTER, LIVER, S-9, AROCLOR 1254, Method: STANDARD PLATE): inactive; negative
mutagenic call (Test System: AMES SALMONELLA TYPHIMURIUM, Strain/Indicator: TA1535, Metabolic Activation: HAMSTER, LIVER, S-9, Method: STANDARD PLATE): inactive; negative
mutagenic call (Test System: AMES SALMONELLA TYPHIMURIUM, Strain/Indicator: TA1535, Metabolic Activation: MOUSE, LIVER, S-9, AROCLOR 1254, Method: STANDARD PLATE): inactive; negative
mutagenic call (Test System: AMES SALMONELLA TYPHIMURIUM, Strain/Indicator: TA1535, Metabolic Activation: MOUSE, LIVER, S-9, Method: STANDARD PLATE): inactive; negative
mutagenic call (Test System: AMES SALMONELLA TYPHIMURIUM, Strain/Indicator: TA1535, Metabolic Activation: NONE, Method: STANDARD PLATE): inactive; negative
mutagenic call (Test System: AMES SALMONELLA TYPHIMURIUM, Strain/Indicator: TA1535, Metabolic Activation: RAT, LIVER, S-9, AROCLOR 1254, Method: STANDARD PLATE): inactive; negative
mutagenic call (Test System: AMES SALMONELLA TYPHIMURIUM, Strain/Indicator: TA1535, Metabolic Activation: RAT, LIVER, S-9, PYRAZOLE, Method: PREINCUBATION): inactive; negative
